Values joined by “and” are separate entries in the source; they are usually repeats but may differ in a detail not shown here. Equal values may be shown once. Inconclusive results and toxic doses are left out. The calls were made as follows: active = survival T/C of 150% or more; inactive = T/C below 125% in these data.
Test system: BDF1 mice, P388 leukemia ip, median survival T/C
Assay: NCI In Vivo Anticancer Drug Screen. Data for tumor model P388 Leukemia (intraperitoneal) in B6D2F1 (BDF1) mice
Conditions: endpoint: median survival time, higher = longer survival
Method in brief: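 Read-out is survival of treated animals expressed relative to the vehicle group, as a T/C ratio.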

[1] = dose: 100.0 mg/kg/injection, schedule: Q01DX001 (ip), vehicle: saline with Tween-80
[2] = dose: 50.0 mg/kg/injection, schedule: Q01DX009 (ip), vehicle: saline with Tween-80
[3] = dose: 100.0 mg/kg/injection, schedule: Q01DX009 (ip), vehicle: saline with Tween-80
[4] = dose: 200.0 mg/kg/injection, schedule: Q01DX009 (ip), vehicle: saline with Tween-80
[5] = dose: 12.5 mg/kg/injection, schedule: Q01DX009 (ip), vehicle: saline with Tween-80
[6] = dose: 25.0 mg/kg/injection, schedule: Q01DX009 (ip), vehicle: saline with Tween-80
[7] = dose: 100.0 mg/kg/injection, schedule: Q04DX003 (ip), vehicle: saline with Tween-80
[8] = dose: 200.0 mg/kg/injection, schedule: Q04DX003 (ip), vehicle: saline with Tween-80

Measured: T/C

C=CCCCCCCCCC(=O)N(C)OC
inactive: dose: 25.0 mg/kg/injection, schedule: Q01DX001 (ip), vehicle: saline with Tween-80 95 % of control | dose: 50.0 mg/kg/injection, schedule: Q01DX001 (ip), vehicle: saline with Tween-80 109 % of control | [1] 118 % of control

COc1cc(C2=CC(OC)(OC)C=C(C(C)(C)C)C2=O)c(O)c(C(C)(C)C)c1
inactive: [2] 105 % of control | [3] 108 % of control | [4] 112 % of control

COc1ccc(CC(=O)NCCc2ccccc2)cc1OC
inactive: [5] 112 % of control | dose: 12.5 mg/kg/injection, schedule: Q04DX003 (ip), vehicle: saline with Tween-80 100 % of control | [6] 104 % of control | dose: 25.0 mg/kg/injection, schedule: Q04DX003 (ip), vehicle: saline with Tween-80 100 % of control | [2] 110 % of control | dose: 50.0 mg/kg/injection, schedule: Q04DX003 (ip), vehicle: saline with Tween-80 109 % of control | [7] 99 % of control and 100 % of control

CSc1ncnc2nc[nH]c12
inactive: dose: 25.0 mg/kg/injection, schedule: Q01DX010 (ip), vehicle: saline 100 % of control | dose: 50.0 mg/kg/injection, schedule: Q01DX010 (ip), vehicle: saline 100 % of control | dose: 100.0 mg/kg/injection, schedule: Q01DX010 (ip), vehicle: saline 95 % of control and 100 % of control | dose: 200.0 mg/kg/injection, schedule: Q01DX010 (ip), vehicle: saline 104 % of control and 105 % of control

CCCCCCCCCC[N+](C)(C)CC(O)C[N+](C)(C)CCCCCCCCCC
inactive: dose: 1.56 mg/kg/injection, schedule: Q01DX009 (ip), vehicle: saline 91 % of control and 109 % of control | dose: 3.12 mg/kg/injection, schedule: Q01DX009 (ip), vehicle: saline 104 % of control | dose: 3.13 mg/kg/injection, schedule: Q01DX009 (ip), vehicle: saline 100 % of control and 108 % of control | dose: 6.25 mg/kg/injection, schedule: Q01DX009 (ip), vehicle: saline 100 % of control and 109 % of control and 120 % of control | dose: 12.5 mg/kg/injection, schedule: Q01DX009 (ip), vehicle: saline 107 % of control and 109 % of control and 111 % of control

Cc1ccc(Nc2ccc(Nc3ccc(C)cc3)c3c2C(=O)c2ccccc2C3=O)cc1
inactive: [2] 90 % of control | [3] 86 % of control | [7] 88 % of control | [4] 90 % of control | [8] 100 % of control

Nc1cc(N)c([N+](=O)[O-])cc1[N+](=O)[O-]
inactive: [3] 90 % of control | [4] 100 % of control | dose: 400.0 mg/kg/injection, schedule: Q01DX009 (ip), vehicle: saline with Tween-80 104 % of control

O=[N+]([O-])/C=C/c1ccc([N+](=O)[O-])cc1Cl
inactive: dose: 12.5 mg/kg/injection, schedule: Q01DX009 (ip), vehicle: Klucel (hydroxypropylcellulose) (HPC) 109 % of control | dose: 25.0 mg/kg/injection, schedule: Q01DX009 (ip), vehicle: Klucel (hydroxypropylcellulose) (HPC) 109 % of control | dose: 25.0 mg/kg/injection, schedule: Q04DX003 (ip), vehicle: Klucel (hydroxypropylcellulose) (HPC) 115 % of control | dose: 50.0 mg/kg/injection, schedule: Q01DX009 (ip), vehicle: Klucel (hydroxypropylcellulose) (HPC) 104 % of control | dose: 50.0 mg/kg/injection, schedule: Q04DX003 (ip), vehicle: Klucel (hydroxypropylcellulose) (HPC) 107 % of control | dose: 100.0 mg/kg/injection, schedule: Q04DX003 (ip), vehicle: Klucel (hydroxypropylcellulose) (HPC) 88 % of control

OC(Cc1nc(-c2ccccc2)c(-c2ccccc2)s1)(C(F)(F)F)C(F)(F)F
inactive: [7] 100 % of control | [8] 104 % of control | dose: 400.0 mg/kg/injection, schedule: Q04DX003 (ip), vehicle: saline with Tween-80 100 % of control

CCOc1ccccc1NC(=O)c1ccc(Cl)cc1
inactive: [1] 90 % of control | dose: 200.0 mg/kg/injection, schedule: Q01DX001 (ip), vehicle: saline with Tween-80 90 % of control | dose: 400.0 mg/kg/injection, schedule: Q01DX001 (ip), vehicle: saline with Tween-80 95 % of control

CCCCCC#CC1OC1(C)C (centres undefined)
inactive: [5] 97 % of control and 100 % of control | [6] 101 % of control and 103 % of control | [2] 108 % of control and 116 % of control | [3] 108 % of control and 117 % of control and 121 % of control

COc1ccc2c3c(c4cc(OC)c(OC)cc4c2c1)C[C@H]1CCCCN1C3
inactive: dose: 0.25 mg/kg/injection, schedule: Q01DX010 (ip), vehicle: saline 100 % of control | dose: 0.5 mg/kg/injection, schedule: Q01DX010 (ip), vehicle: saline 120 % of control | dose: 1.0 mg/kg/injection, schedule: Q01DX010 (ip), vehicle: saline 120 % of control | dose: 2.0 mg/kg/injection, schedule: Q01DX010 (ip), vehicle: saline 91 % of control

CCOC(=O)/C(=C/C(C#N)=C/N(C)C)CC
inactive: dose: 100.0 mg/kg/injection, schedule: Q01DX001 (ip), vehicle: other 100 % of control | dose: 200.0 mg/kg/injection, schedule: Q01DX001 (ip), vehicle: other 109 % of control | dose: 400.0 mg/kg/injection, schedule: Q01DX001 (ip), vehicle: other 109 % of control

C[N+]1(C)N=C([O-])N(c2ccccc2[N+](=O)[O-])C1=O
inactive: [2] 88 % of control

Reference: PubChem BioAssay AID328 (DTP/NCI, 2004)
